Measurements as given in PubChem BioAssay AID248 (DTP/NCI, 2004).
Toxic doses and inconclusive results are not listed. Cut-off read from the data, not from the text of the source: active = T/C of 150% or more; inactive = T/C below 125%.

System: L1210 leukemia ip in BDF1 mice, survival T/C
Assay: NCI In Vivo Anticancer Drug Screen. Data for tumor model L1210 Leukemia (intraperitoneal) in B6D2F1 (BDF1) mice
Details: endpoint: mean survival time, higher = longer survival
Outline: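 Survival endpoint. Drug-treated group vs vehicle group, expressed as T divided by C. Tumor passaged by transplantation.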

[1] = dose: 50.0 mg/kg/injection, schedule: Q01DX009 (ip), vehicle: Klucel (hydroxypropylcellulose) (HPC)
[2] = dose: 100.0 mg/kg/injection, schedule: Q01DX009 (ip), vehicle: Klucel (hydroxypropylcellulose) (HPC)
[3] = dose: 100.0 mg/kg/injection, schedule: Q04DX003 (ip), vehicle: Klucel (hydroxypropylcellulose) (HPC)
[4] = dose: 200.0 mg/kg/injection, schedule: Q04DX003 (ip), vehicle: Klucel (hydroxypropylcellulose) (HPC)
[5] = dose: 100.0 mg/kg/injection, schedule: Q01DX001 (ip), vehicle: saline
[6] = dose: 200.0 mg/kg/injection, schedule: Q01DX001 (ip), vehicle: saline
[7] = dose: 400.0 mg/kg/injection, schedule: Q01DX001 (ip), vehicle: saline
[8] = dose: 25.0 mg/kg/injection, schedule: Q04DX002 (ip), vehicle: Klucel (hydroxypropylcellulose) (HPC)
[9] = dose: 50.0 mg/kg/injection, schedule: Q04DX002 (ip), vehicle: Klucel (hydroxypropylcellulose) (HPC)
[10] = dose: 100.0 mg/kg/injection, schedule: Q04DX002 (ip), vehicle: Klucel (hydroxypropylcellulose) (HPC)

Measured: T/C

CC(C)CS.[Pb]
inactive: dose: 100.0 mg/kg/injection, schedule: Q04DX002 (ip), vehicle: gum acacia 93 % of control | dose: 200.0 mg/kg/injection, schedule: Q04DX002 (ip), vehicle: gum acacia 93 % of control | dose: 400.0 mg/kg/injection, schedule: Q04DX002 (ip), vehicle: gum acacia 89 % of control

C1=NCCc2cc3[nH]c4ccccc4c3cc21
inactive: dose: 25.0 mg/kg/injection, schedule: Q01DX009 (ip), vehicle: Klucel (hydroxypropylcellulose) (HPC) 100 % of control | [1] 100 % of control | dose: 50.0 mg/kg/injection, schedule: Q04DX003 (ip), vehicle: Klucel (hydroxypropylcellulose) (HPC) 98 % of control | dose: 100.0 mg/kg/injection, schedule: Q01DX001 (ip), vehicle: Klucel (hydroxypropylcellulose) (HPC) 95 % of control | [2] 102 % of control | [3] 97 % of control | dose: 200.0 mg/kg/injection, schedule: Q01DX001 (ip), vehicle: Klucel (hydroxypropylcellulose) (HPC) 91 % of control

CCSC(C)C
inactive: dose: 100.0 mg/kg/injection, schedule: Q04DX003 (ip), vehicle: saline 106 % of control | dose: 200.0 mg/kg/injection, schedule: Q04DX003 (ip), vehicle: saline 107 % of control | dose: 400.0 mg/kg/injection, schedule: Q04DX003 (ip), vehicle: saline 102 % of control

CS(=O)(=O)Nc1ccc(C(=O)O)cc1
inactive: [2] 97 % of control | [3] 100 % of control | dose: 200.0 mg/kg/injection, schedule: Q01DX009 (ip), vehicle: Klucel (hydroxypropylcellulose) (HPC) 98 % of control | [4] 107 % of control | dose: 400.0 mg/kg/injection, schedule: Q01DX009 (ip), vehicle: Klucel (hydroxypropylcellulose) (HPC) 98 % of control | dose: 400.0 mg/kg/injection, schedule: Q04DX003 (ip), vehicle: Klucel (hydroxypropylcellulose) (HPC) 105 % of control

CS(=O)(=O)c1ncc2cnccn12
inactive: dose: 100.0 mg/kg/injection, schedule: Q01DX009 (ip), vehicle: water 101 % of control | dose: 100.0 mg/kg/injection, schedule: Q04DX003 (ip), vehicle: water 109 % of control | dose: 200.0 mg/kg/injection, schedule: Q01DX009 (ip), vehicle: water 109 % of control | dose: 400.0 mg/kg/injection, schedule: Q04DX003 (ip), vehicle: water 110 % of control

CC(C)CNNCC(C)C
inactive: dose: 75.0 mg/kg/injection, schedule: Q01DX001 (ip), vehicle: other 103 % of control

COc1ccccc1N(C(C)=O)C1=C(Cl)C(=O)c2ccccc2C1=O
inactive: dose: 10.0 mg/kg/injection, schedule: Q01DX001 (ip), vehicle: saline 97 % of control | dose: 20.0 mg/kg/injection, schedule: Q01DX001 (ip), vehicle: saline 97 % of control

O=C(Cc1ccccc1)c1ccccc1
inactive: dose: 100.0 mg/kg/injection, schedule: Q01DX009 (ip), vehicle: saline with Tween-80 93 % of control | dose: 200.0 mg/kg/injection, schedule: Q01DX009 (ip), vehicle: saline with Tween-80 93 % of control | dose: 400.0 mg/kg/injection, schedule: Q01DX009 (ip), vehicle: saline with Tween-80 100 % of control

Oc1ccc(/C=N/N2CCN(/N=C/c3ccc(O)cc3O)CC2)c(O)c1
inactive: [5] 97 % of control | [6] 94 % of control | [7] 100 % of control

COC1OC2COC(c3ccccc3)OC2C(O)C1OC(N)=S (stereo not given)
inactive: [8] 98 % of control | [9] 98 % of control | [10] 88 % of control | dose: 200.0 mg/kg/injection, schedule: Q04DX002 (ip), vehicle: Klucel (hydroxypropylcellulose) (HPC) 100 % of control | dose: 400.0 mg/kg/injection, schedule: Q04DX002 (ip), vehicle: Klucel (hydroxypropylcellulose) (HPC) 96 % of control

O=C(COc1cccc(Cl)c1)NCc1ccc(NC(=O)c2cccc(S(=O)(=O)F)c2)cc1
inactive: [8] 111 % of control | [9] 107 % of control | [10] 100 % of control

O=C(ONC1CCC(CC2CCCCC2)CC1)c1ccccc1 (stereo not given)
inactive: [1] 102 % of control | [2] 97 % of control | [3] 97 % of control | [4] 89 % of control

CSc1nc(C)c(C)c(=O)[nH]1
inactive: [5] 104 % of control | [6] 116 % of control | [7] 124 % of control

O=C(CCl)Nc1ccc(CCN2C(=O)CC(c3ccccc3)C2=O)cc1 (stereo not given)
inactive: dose: 100.0 mg/kg/injection, schedule: Q04DX002 (ip), vehicle: saline with Tween-80 93 % of control | dose: 200.0 mg/kg/injection, schedule: Q04DX002 (ip), vehicle: saline with Tween-80 97 % of control | dose: 400.0 mg/kg/injection, schedule: Q04DX002 (ip), vehicle: saline with Tween-80 89 % of control

CN(C)C(=O)NNC(=O)c1ccc(Cl)cc1
inactive: dose: 100.0 mg/kg/injection, schedule: Q04DX003 (ip), vehicle: saline with Tween-80 100 % of control | dose: 200.0 mg/kg/injection, schedule: Q04DX003 (ip), vehicle: saline with Tween-80 95 % of control

Nc1ncnc(N)c1NC(=O)c1cccc(F)c1
inactive: dose: 100.0 mg/kg/injection, schedule: Q01DX001 (ip), vehicle: saline with Tween-80 106 % of control | dose: 200.0 mg/kg/injection, schedule: Q01DX001 (ip), vehicle: saline with Tween-80 101 % of control | dose: 400.0 mg/kg/injection, schedule: Q01DX001 (ip), vehicle: saline with Tween-80 102 % of control
